Measurements reported in patent US6465515B2, “Solid compositions suitable for oral administration containing non-hydroscopic salts of L-carnitine and alkanoyl L-carnitines” (Sigma-Tau Industrie Farmaceutiche Riunite S.p.A., priority 1998, dated 2002).

Assay: hygroscopicity of the salts
Assay type: physicochemical
Conditions: isolated solid

Structure (SMILES) | hygroscopicity
CC(=O)O[C@H](CC(=O)O)C[N+](C)(C)C [Example 3, Acetyl L-carnitine Pamoate] | non-hygroscopic
CCC(=O)O[C@H](CC(=O)O)C[N+](C)(C)C [Example 1, Propionyl L-carnitine Pamoate] | non-hygroscopic
